According to patent US8802597B2, “Herbicidal pyrimidines” (E I du Pont de Nemours and Company, priority 2003, dated 2014):

What was measured:
Type in all cases: in vivo
[1] = tested on: Surinam grass (Brachiaria decumbens); assay: Test C pre/postemergence; settings: Postemergence
Text: (§1) Seeds or nutlets of plant species selected from bermudagrass (Cynodon dactylon), Surinam grass (Brachiaria decumbens), cocklebur (Xanthium strumarium), corn (Zea mays), crabgrass (Digitaria sanguinalis), woolly cupgrass (Eriochloa villosa), giant foxtail (Setaria faberii), goosegrass (Eleusine indica), johnsongrass (Sorghum halepense), kochia (Kochia scoparia), lambsquarters (Chenopodium album), morningglory (Ipomoea coccinea), eastern black nightshade (Solanum ptycanthum), yellow nutsedge (Cyperus esculentus), pigweed (Amaranthus retroflexus), common ragweed (Ambrosia elatior), soybean (Glycine max), common (oilseed) sunflower (Helianthus annuus), and velvetleaf (Abutilon theophrasti) were planted and treated preemergence with test chemicals formulated in a non-phytotoxic solvent mixture which included a surfactant.
(§2) At the same time, plants selected from these crop and weed species and also winter barley (Hordeum vulgare), blackgrass (Alopecurus myosuroides), canarygrass (Phalaris minor), chickweed (Stellaria media), downy brome (Bromus tectorum), green foxtail (Setaria viridis), Italian ryegrass (Lolium multiflorum), wheat (Triticum aestivum), wild oat (Avena fatua) and windgrass (Apera spica-venti) were treated with postemergence applications of some of the test chemicals formulated in the same manner. Plants ranged in height from 2 to 18 cm (1- to 4-leaf stage) for postemergence treatments. Plant species in the flooded paddy test consisted of rice (Oryza sativa), umbrella sedge (Cyperus difformis), duck salad (Heteranthera limosa) and barnyardgrass (Echinochloa crus-galli) grown to the 2-leaf stage for testing. Treated plants and controls were maintained in a greenhouse for 12 to 14 days, after which time all species were compared to controls and visually evaluated. Plant response ratings, summarized in Table C, are based on a scale of 0 to 100 where 0 is no effect and 100 is complete control. A dash (-) response means no test result.

[2] = tested on: common ragweed (Ambrosia elatior); assay: Test C pre/postemergence; settings: Postemergence
Text: as §1, §2

[3] = tested on: giant foxtail (Setaria faberii); assay: Test C pre/postemergence; settings: Postemergence
Text: as §1, §2

[4] = tested on: johnsongrass (Sorghum halepense); assay: Test C pre/postemergence; settings: Postemergence
Text: as §1, §2

kochia (Kochia scoparia) = assay: Test C pre/postemergence; settings: Postemergence
Text: as §1, §2

[5] = tested on: morningglory (Ipomoea coccinea); assay: Test C pre/postemergence; settings: Postemergence
Text: as §1, §2

[6] = tested on: pigweed (Amaranthus retroflexus); assay: Test C pre/postemergence; settings: Postemergence
Text: as §1, §2

soybean (Glycine max) = assay: Test C pre/postemergence; settings: Postemergence
Text: as §1, §2

[7] = tested on: woolly cupgrass (Eriochloa villosa); assay: Test C pre/postemergence; settings: Postemergence
Text: as §1, §2

[8] = tested on: yellow nutsedge (Cyperus esculentus); assay: Test C pre/postemergence; settings: Postemergence
Text: as §1, §2

[9] = tested on: chickweed (Stellaria media); assay: Test C postemergence
Text: as §1, §2

[10] = 125 g ai/ha, scale 0 to 100 (0 no effect, 100 complete control)

For COC(=O)c1nc(-c2ccc(Cl)cc2)nc(N)c1Br [Compound 83], which “Plant response rating (scale of 0 to 100), Surinam Grass” value ([1]; 16 g ai/ha) is on record?
The value was 20.

What about the “Plant response rating (scale of 0 to 100), Surinam Grass” value ([1]; 31 g ai/ha) of the same compound?
The value was 30.

And the “Plant response rating (scale of 0 to 100), Surinam Grass” value ([1]; 62 g ai/ha)?
The value was 45.

And the “Surinam Grass plant response rating” value [1, 10]?
The value was 65.

And the “Plant response rating (scale of 0 to 100), Ragweed” value ([2]; 16 g ai/ha)?
Its value is 65.

What about the “Plant response rating (scale of 0 to 100), Ragweed” value ([2]; 31 g ai/ha) of the same compound?
The value was 70.

And the “Plant response rating (scale of 0 to 100), Ragweed” value ([2]; 62 g ai/ha)?
The value was 75.

And the “Ragweed plant response rating” value [2, 10]?
The value was 95.

What about the “Plant response rating (scale of 0 to 100), Foxtail, Giant” value ([3]; 16 g ai/ha) of the same compound?
The value was 0.

And the “Plant response rating (scale of 0 to 100), Foxtail, Giant” value ([3]; 31 g ai/ha)?
Its value is 0.

What about the “Plant response rating (scale of 0 to 100), Foxtail, Giant” value ([3]; 62 g ai/ha) of the same compound?
The value was 20.

What about the “Foxtail, Giant plant response rating” value [3, 10] of the same compound?
Its value is 40.

What about the “Plant response rating (scale of 0 to 100), Johnsongrass” value ([4]; 16 g ai/ha) of the same compound?
Its value is 10.

And the “Plant response rating (scale of 0 to 100), Johnsongrass” value ([4]; 31 g ai/ha)?
The value was 55.

What about the “Plant response rating (scale of 0 to 100), Johnsongrass” value ([4]; 62 g ai/ha) of the same compound?
Its value is 55.

What about the “Johnsongrass plant response rating” value [4, 10] of the same compound?
The value was 70.

And the “Plant response rating (scale of 0 to 100), Kochia” value (kochia (Kochia scoparia); 16 g ai/ha)?
Its value is 65.

And the “Plant response rating (scale of 0 to 100), Kochia” value (kochia (Kochia scoparia); 31 g ai/ha)?
Its value is 75.

What about the “Plant response rating (scale of 0 to 100), Kochia” value (kochia (Kochia scoparia); 62 g ai/ha) of the same compound?
The value was 75.

And the “Kochia plant response rating” value (kochia (Kochia scoparia); [10])?
Its value is 90.

What about the “Plant response rating (scale of 0 to 100), Morningglory” value ([5]; 16 g ai/ha) of the same compound?
The value was 70.

And the “Plant response rating (scale of 0 to 100), Morningglory” value ([5]; 31 g ai/ha)?
Its value is 85.

And the “Plant response rating (scale of 0 to 100), Morningglory” value ([5]; 62 g ai/ha)?
Its value is 90.

And the “Morningglory plant response rating” value [5, 10]?
Its value is 90.

And the “Plant response rating (scale of 0 to 100), Pigweed” value ([6]; 16 g ai/ha)?
Its value is 95.

What about the “Plant response rating (scale of 0 to 100), Pigweed” value ([6]; 31 g ai/ha) of the same compound?
Its value is 95.

And the “Plant response rating (scale of 0 to 100), Pigweed” value ([6]; 62 g ai/ha)?
Its value is 100.

What about the “Pigweed plant response rating” value [6, 10] of the same compound?
The value was 100.

And the “Plant response rating (scale of 0 to 100), Soybean” value (soybean (Glycine max); 16 g ai/ha)?
Its value is 85.

What about the “Plant response rating (scale of 0 to 100), Soybean” value (soybean (Glycine max); 31 g ai/ha) of the same compound?
The value was 90.

What about the “Plant response rating (scale of 0 to 100), Soybean” value (soybean (Glycine max); 62 g ai/ha) of the same compound?
Its value is 100.

And the “Soybean plant response rating” value (soybean (Glycine max); [10])?
The value was 100.

And the “Plant response rating (scale of 0 to 100), Cupgrass, Woolly” value ([7]; 16 g ai/ha)?
Its value is 15.

What about the “Plant response rating (scale of 0 to 100), Cupgrass, Woolly” value ([7]; 31 g ai/ha) of the same compound?
Its value is 15.

What about the “Plant response rating (scale of 0 to 100), Cupgrass, Woolly” value ([7]; 62 g ai/ha) of the same compound?
Its value is 45.

And the “Cupgrass, Woolly plant response rating” value [7, 10]?
The value was 60.

What about the “Plant response rating (scale of 0 to 100), Nutsedge, Yellow” value ([8]; 16 g ai/ha) of the same compound?
The value was 60.

And the “Plant response rating (scale of 0 to 100), Nutsedge, Yellow” value ([8]; 31 g ai/ha)?
Its value is 60.

What about the “Plant response rating (scale of 0 to 100), Nutsedge, Yellow” value ([8]; 62 g ai/ha) of the same compound?
The value was 60.

What about the “Nutsedge, Yellow plant response rating” value [8, 10] of the same compound?
The value was 75.

And the “Plant response rating (scale of 0 to 100), Chickweed” value ([9]; 16 g ai/ha)?
The value was 0.

What about the “Plant response rating (scale of 0 to 100), Chickweed” value ([9]; 31 g ai/ha) of the same compound?
Its value is 0.

What about the “Plant response rating (scale of 0 to 100), Chickweed” value ([9]; 62 g ai/ha) of the same compound?
The value was 10.

What about the “Chickweed plant response rating” value [9, 10] of the same compound?
Its value is 30.
